Results: patent publication US20230099441A1, “HETEROCYCLIC COMPOUND, APPLICATION THEREOF, AND COMPOSITION CONTAINING SAME” (GenEros Biopharma Ltd., priority 2019, published 2023)

Columns and labels:
[1] = tested on: mouse collagen-induced arthritis model; assay: Therapeutic efficacy in a mouse collagen-induced arthritis model (clinical score); type: in vivo; settings: mean of group, total score 0-12, oral, Methotrexate 0.25 mg/kg once a week, Tofacitinib 5 mg/kg once a day, X8 1 mg/kg once a day
Excerpt: Example of Effect 2: Evaluation of the Therapeutic Efficacy of X8 Compound in a Mouse Collagen-Induced Arthritis Model
(§1) Sixty male DBA/1J mice (9-10 weeks old, H-2q haplotype) were acclimatized in a standard animal room for one week and then randomly divided into 5 groups. Except for the healthy control group, the rest were inoculated with collagen antigen injection, and then received oral treatment with different compounds. The brief procedure was to mix bovine type II collagen (purchased from Chondrex, 20021) with an equal volume of Freund's complete adjuvant (purchased from Sigma, F5881), the concentration was 4 mg/ml, and it was treated with a homogenizer at a speed of 20,000 revolutions/min for 5-10 minutes. A needle was inserted between the left side of the dorsal caudal artery and the lateral vein of the mouse, and 50 microliters of modeling agent was injected subcutaneously. 21 days after the first injection, another injection was injected between the right side of the dorsal tail artery and the lateral vein of the mouse. After the first injection, oral administration was started. The drug was formulated with […] PEG300, and it was prepared for immediate use. […] The total score was between 0-12 points, and the swelling of the foot after vaccination was not calculated.

[2] = Body weight of animals in the mouse collagen-induced arthritis model; type: in vivo; settings: oral, X8 1 mg/kg once a day; for body weight of animals, Mean/g: mean of group, Methotrexate 0.25 mg/kg once a week, Tofacitinib 5 mg/kg once a day; for effect on body weight of animals (in words): whole experiment, days 0-45, methotrexate 0.25 mg/kg once a week, tofacitinib 5 mg/kg once a day
Excerpt: as §1

SMILES	clinical score of arthritis, Mean (the larger the value, the more severe the disease) ([1]; day 0)	clinical score of arthritis, Mean (the larger the value, the more severe the disease) ([1]; day 21)	clinical score of arthritis, Mean (the larger the value, the more severe the disease) ([1]; day 25)	clinical score of arthritis, Mean (the larger the value, the more severe the disease) ([1]; day 28)	clinical score of arthritis, Mean (the larger the value, the more severe the disease) ([1]; day 31)	clinical score of arthritis, Mean (the larger the value, the more severe the disease) ([1]; day 33)	clinical score of arthritis, Mean (the larger the value, the more severe the disease) ([1]; day 35)	clinical score of arthritis, Mean (the larger the value, the more severe the disease) ([1]; day 38)	clinical score of arthritis, Mean (the larger the value, the more severe the disease) ([1]; day 40)	clinical score of arthritis, Mean (the larger the value, the more severe the disease) ([1]; day 42)	clinical score of arthritis, Mean (the larger the value, the more severe the disease) ([1]; day 45)	body weight of animals, Mean/g ([2]; day 0) [g]	body weight of animals, Mean/g ([2]; day 4) [g]	body weight of animals, Mean/g ([2]; day 7) [g]	body weight of animals, Mean/g ([2]; day 11) [g]	body weight of animals, Mean/g ([2]; day 14) [g]	body weight of animals, Mean/g ([2]; day 18) [g]	body weight of animals, Mean/g ([2]; day 20) [g]	body weight of animals, Mean/g ([2]; day 25) [g]	body weight of animals, Mean/g ([2]; day 28) [g]	other results
CN(Cc1cnc2nc(N)nc(N)c2n1)c1ccc(C(=O)N[C@@H](CCC(=O)O)C(=O)O)cc1 [Methotrexate, methotrexate]	0.00	0.00	0.00	0.40	1.32	1.55	2.05	2.41	2.60	3.66	4.61	21.92	22.30	22.91	23.33	21.72	23.92	24.09	23.64	23.48	body weight of animals, Mean/g ([2]; day 31): 23.12 g; body weight of animals, Mean/g ([2]; day 33): 23.00 g; body weight of animals, Mean/g ([2]; day 35): 22.08 g; body weight of animals, Mean/g ([2]; day 38): 22.86 g; body weight of animals, Mean/g ([2]; day 40): 22.70 g; body weight of animals, Mean/g ([2]; day 42): 22.45 g; body weight of animals, Mean/g ([2]; day 45): 22.30 g; effect on body weight of animals (in words) [2]: two sudden drops
C[C@@H]1CCN(C(=O)CC#N)C[C@@H]1N(C)c1ncnc2[nH]ccc12 [Tofacitinib, tofacitinib]	0.00	0.00	0.00	0.81	1.83	2.19	2.52	2.77	2.62	3.14	2.90	21.94	22.41	22.76	22.79	22.55	22.87	23.20	22.48	22.46	body weight of animals, Mean/g ([2]; day 31): 22.37 g; body weight of animals, Mean/g ([2]; day 33): 22.65 g; body weight of animals, Mean/g ([2]; day 35): 22.43 g; body weight of animals, Mean/g ([2]; day 38): 22.30 g; body weight of animals, Mean/g ([2]; day 40): 20.90 g; body weight of animals, Mean/g ([2]; day 42): 22.13 g; body weight of animals, Mean/g ([2]; day 45): 22.30 g; effect on body weight of animals (in words) [2]: weight loss in the late stage of the experiment
